Results on five compounds are retold here after patent US9085514B2, “Unnatural amino acids comprising a cyclooctynyl or trans-cyclooctenyl analog group and uses thereof” (EMBL, priority 2011, dated 2015).

Format in all cases: cell-based, M. maize
One assay has as its target T1, tRNA^pyl/pylRS^AF (Methanosarcina mazei, UniProt Q8PWY1, Y306A/Y384F).
T1 construct: expressed in transfected cells; host or cells: HeLa Kyoto cells, plasmid pCMV tRNA^pyl/pylRS^AF
Description: UAA dependent amber suppression in HeLa cells (NLS-mCherry-^TAGGFP, automated microscope), RS^AF. The following applies: HeLa nuclei, 24 h after transfection. From the text: (§1) A single expression plasmid for expression of both tRNA^pyl and the pyrrolysine synthetase pylRS was generated by replacing the tRNA and synthetase of mammalian UAA expression plasmid pSWAN (Liu et al., Nat Methods 2007, 4: 239) with a synthetic gene derived from the plasmid pEVOL tRNA^pyl/pylRS^WT or pEVOL tRNA^pyl/pylRS^AF.
(§2) For mammalian amber suppression studies, a NLS-mCherry-^TAGGFP fusion protein was generated. Due to the nuclear localization sequence (NLS) the expressed protein was targeted to the nucleus. Accordingly, mCherry expression was visible by orange fluorescence in the nucleus signifying the successful transfection of the plasmid. Green fluorescence indicated successful GFP expression due to successful co-transfection of the appropriate tRNA^pyl/pylRS plasmid and suppression of the amber codon in the fused ^TAGGFP.
(§3) UAA concentration dependent GFP expression in the presence of UAA 1, 13, 16 or 17 and RS^WT or RS^AF was analyzed using the following automated microscope procedure.
(§4) HeLa Kyoto cells were grown in DMEM low glucose medium (1 g/l) (Sigma, Munich, Germany) with 10% FBS (Sigma) and 1% L-glutamine. 10−20×10^3 cells per well were seeded in a glass bottom 24-well chamber and cultured overnight. On the next-day, the growth medium was exchanged for fresh one supplied with increasing concentrations of UAA (0, 1, 10, 100, 250, 1000 μM), and the cells were co-transfected (1:1 ratio) with plasmids-carrying NLS-mCherry-^TAGGFP and the respective tRNA^pyl/pylRS pair (RS^WT or RS^AF) using jetPRIME transfection reagent following the manufacturer protocol (Polyplus-transfection. SA, Illkirch, France). 24 h after transfection, cells were stained with Hoechst 33342 (1 μg/ml, 10 min), fixed with 2% paraformaldehyde (15 min, RT) and kept in PBS for imaging. For every UAA concentration, the experiment was repeated twice and in two independently prepared 24 well chambers.
(§5) Microscopy imaging was performed using automated widefield Olympus ScanR microscope (objective UplanApo 20×, 0.70 NA, Hamamatsu Orca R2 CCD camera) in, three channels (Hoechst, GFP, mCherry). For every well at least 25 images (1344×1024 pixels; 433×330 μm, 12-bit) were acquired (exposure times: 30 ms Hoechst, 100 ms mCherry, 100 ms for GFP). Hoechst staining allowed use of the automated focus option of the system. Images were analyzed using the ImageJ macro (http://fiji.sc/wiki/index.php) allowing quantification of GFP fluorescence intensity in the cells showing mCherry fluorescence signal. Hoechst staining was used to threshold and select nuclei. For every detected nucleus, intensities, in the mCherry and GFP channels were quantified. Background intensities in GFP and mCherry channel were measured using one well of each chamber containing cells that were not transfected but stained with Hoechst. Those background values set the threshold to discriminate cells expressing mCherry from the background. For every well the average intensity of GFP (IGFP) in cells positive for GFP and mCherry signals was determined as a measure of successful UAA incorporation. GFP intensities were normalized separately for every UAA based on the maximal observed signal (either for RS^WT or RS^AF).

In assay [1] the target is T2, mutant pyrrolysyl tRNA synthetase comprising amino acid substitutions Y306A and Y384F (pylRS^AF) (Methanosarcina mazei, UniProt Q8PWY1, Y306A/Y384F).
T2 construct: expressed in transfected cells; host or cells: E. coli Top10, plasmid pEVOL tRNA^pyl/pylRS^AF
The assay can be described thus: Expression of GFP^TAG in E. coli in presence of UAA (amber suppression) with tRNA^pyl/pylRS^AF. As to conditions: 1 mM UAA; for incorporation by RS^AF (GFP fluorescence, SDS-PAGE): FIG. 6; for Expression of GFP^TAG protein: pylRS^WT or pylRS^AF, compared to negative control (FIG. 1).

The next assay concerns the target T3, tRNA^pyl/pylRS^WT (Methanosarcina mazei, UniProt Q8PWY1).
T3 construct: expressed in transfected cells; host or cells: HeLa Kyoto cells, plasmid pCMV tRNA^pyl/pylRS^WT
The assay can be described thus: UAA dependent amber suppression in HeLa cells (NLS-mCherry-^TAGGFP, automated microscope), RS^WT. The following applies: HeLa nuclei, 24 h after transfection.
From the text: as §1, §2, §3, §4, §5

Assay [2] concerns the target T4, wildtype pyrrolysyl tRNA synthetase (pylRS^WT) (Methanosarcina mazei, UniProt Q8PWY1).
T4 construct: expressed in transfected cells; host or cells: E. coli Top10, plasmid pEVOL tRNA^pyl/pylRS^WT
The assay can be described thus: Expression of GFP^TAG in E. coli in presence of UAA (amber suppression) with tRNA^pyl/pylRS^WT. As to conditions: 1 mM UAA, FIG. 6.

T1 sequence (Q8PWY1 whole entry Y306A/Y384F): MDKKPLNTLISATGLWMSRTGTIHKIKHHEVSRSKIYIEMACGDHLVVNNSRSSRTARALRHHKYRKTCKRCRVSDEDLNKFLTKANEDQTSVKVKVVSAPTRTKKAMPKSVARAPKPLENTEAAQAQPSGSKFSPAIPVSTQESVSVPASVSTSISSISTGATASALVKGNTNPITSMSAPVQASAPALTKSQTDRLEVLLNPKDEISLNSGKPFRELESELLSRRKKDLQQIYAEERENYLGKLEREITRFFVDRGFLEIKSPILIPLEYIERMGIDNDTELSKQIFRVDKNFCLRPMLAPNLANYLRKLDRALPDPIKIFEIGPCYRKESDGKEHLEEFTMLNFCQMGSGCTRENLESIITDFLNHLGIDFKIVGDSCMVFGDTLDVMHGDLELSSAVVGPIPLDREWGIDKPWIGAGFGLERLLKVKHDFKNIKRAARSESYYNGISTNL
T2 sequence (Q8PWY1 whole entry Y306A/Y384F): as above
T3 sequence (Q8PWY1 whole entry): as the sequence (Q8PWY1 whole entry Y306A/Y384F) above, with A306Y, F384Y counted along it
T4 sequence (Q8PWY1 whole entry): as the sequence (Q8PWY1 whole entry Y306A/Y384F) above, with A306Y, F384Y counted along it

As to `N[C@@H](CCCCNC(=O)OC1C#CCCCCC1)C(=O)O` (stereo partly drawn) [compound 1, N-ε-((Cyclooct-2-yn-1-yloxy)carbonyl)-L-lysine], the “IGFP (average intensity of GFP, normalized)” value on tRNA^pyl/pylRS^AF (1 μM UAA) is given as 23.7; at tRNA^pyl/pylRS^AF (10 μM UAA), 131.7; at tRNA^pyl/pylRS^AF (100 μM UAA), 106.1; on tRNA^pyl/pylRS^AF (250 μM UAA), 203.6; on tRNA^pyl/pylRS^AF (1000 μM UAA), 118.4; on tRNA^pyl/pylRS^WT (1 μM UAA), 3.3. Further, the “IGFP (average intensity of GFP, normalized)” value came to 5.9 on tRNA^pyl/pylRS^WT (10 μM UAA), 27.6 on tRNA^pyl/pylRS^WT (100 μM UAA), 59.6 at tRNA^pyl/pylRS^WT (250 μM UAA) and 57.5 at tRNA^pyl/pylRS^WT (1000 μM UAA). For the same compound, in assay [1], the “incorporation by RS^AF (GFP fluorescence, SDS-PAGE)” value (shortened to “incorporation by RS^AF”) is “efficient incorporation”. Besides, the “Expression of GFP^TAG protein” value in assay [1] was “observed”.
As for `N[C@@H](CCCCNC(=O)OCCOC1C#CCCCCC1)C(=O)O` (stereo partly drawn) [compound 2, N-ε-((2-(Cyclooct-2-yn-1-yloxy)ethoxy)carbonyl)-L-lysine], the “Expression of GFP^TAG protein” value in assay [1] is on record as “observed”.
For the compound `N[C@@H](CCCCNC(=O)OC1CC/C=C/CCC1)C(=O)O` (some centres unmarked) [compound 13], the “IGFP (average intensity of GFP, normalized)” value was 11.1 at tRNA^pyl/pylRS^AF (1 μM UAA); 11.0 at tRNA^pyl/pylRS^AF (10 μM UAA); 28.8 on tRNA^pyl/pylRS^AF (100 μM UAA); 36.5 at tRNA^pyl/pylRS^AF (250 μM UAA); 20.6 at tRNA^pyl/pylRS^AF (1000 μM UAA); 6.3 on tRNA^pyl/pylRS^WT (1 μM UAA). Moreover, the “IGFP (average intensity of GFP, normalized)” value on tRNA^pyl/pylRS^WT (10 μM UAA) is recorded as 6.9; on tRNA^pyl/pylRS^WT (100 μM UAA), 15.9; on tRNA^pyl/pylRS^WT (250 μM UAA), 22.3; on tRNA^pyl/pylRS^WT (1000 μM UAA) it was 33.2. The “incorporation by RS^AF” value in assay [1] is reported as “efficient incorporation”.
With `N[C@@H](CCCCNC(=O)OC1CC2C=CC1C2)C(=O)O` (some centres unmarked) [compound 16], the “IGFP (average intensity of GFP, normalized)” value came out at 5.7 on tRNA^pyl/pylRS^AF (1 μM UAA); 46.1 at tRNA^pyl/pylRS^AF (10 μM UAA); 114.8 at tRNA^pyl/pylRS^AF (100 μM UAA); 100.4 at tRNA^pyl/pylRS^AF (250 μM UAA); 96.9 at tRNA^pyl/pylRS^AF (1000 μM UAA); 1.5 on tRNA^pyl/pylRS^WT (1 μM UAA). In addition, the “IGFP (average intensity of GFP, normalized)” value is 6.9 at tRNA^pyl/pylRS^WT (10 μM UAA), 9.4 on tRNA^pyl/pylRS^WT (100 μM UAA), 171.6 on tRNA^pyl/pylRS^WT (250 μM UAA) and 178.3 at tRNA^pyl/pylRS^WT (1000 μM UAA). The “incorporation by RS^AF” value in assay [1] is reported as “efficient incorporation”. In addition, the “Incorporation by RS^WT (GFP^TAG expression)” value in assay [2] is on record as “highest GFP^TAG expression”.
Turning to `N[C@@H](CCCCNC(=O)OCC1CC2C=CC1C2)C(=O)O` (some centres unmarked) [compound 17], the “IGFP (average intensity of GFP, normalized)” value turned out to be 10.9 on tRNA^pyl/pylRS^AF (1 μM UAA); 57.5 at tRNA^pyl/pylRS^AF (10 μM UAA); 76.6 at tRNA^pyl/pylRS^AF (100 μM UAA); 163.5 at tRNA^pyl/pylRS^AF (250 μM UAA); 108.9 on tRNA^pyl/pylRS^AF (1000 μM UAA); 4.2 at tRNA^pyl/pylRS^WT (1 μM UAA). The “IGFP (average intensity of GFP, normalized)” value at tRNA^pyl/pylRS^WT (10 μM UAA) came to 2.6; on tRNA^pyl/pylRS^WT (100 μM UAA), 4.3; on tRNA^pyl/pylRS^WT (250 μM UAA), 5.7; at tRNA^pyl/pylRS^WT (1000 μM UAA), 12.8. The “incorporation by RS^AF” value in assay [1] is recorded as “efficient incorporation”.
